Test results reported in ChEMBL document CHEMBL4334492, “Nectriatide, a Potentiator of Amphotericin B Activity from Nectriaceae sp. BF-0114” (J Nat Prod, 2019).
Non-standard residues stand in square brackets, D forms with d. Residues, ends and D or L forms follow the SMILES beside them. *: point of attachment. NMeY = CN[C@@H](Cc1ccc(O)cc1)C(=O)O; 2Abz = Nc1ccccc1C(=O)O; tBu = CC(C)(C)*

Legend:
Type in all cases: functional
Candida albicans [1] = experiment: Potentiation of amphotericin-induced antifungal activity against Candida albicans ATCC 90029 assessed as fold reduction in amphotericin MIC at 16 ug/ml after 24 hrs by broth microdilution method relative to amphotericin MIC alone
Candida albicans [2] = experiment: Potentiation of amphotericin-induced antifungal activity against Candida albicans ATCC 90029 assessed as fold reduction in amphotericin MIC at 32 ug/ml after 24 hrs by broth microdilution method relative to amphotericin MIC alone
Candida albicans [3] = experiment: Potentiation of amphotericin-induced antifungal activity against Candida albicans ATCC 90029 assessed as amphotericin MIC at 16 ug/ml after 24 hrs by broth microdilution method (reference value: 0.5 ug/ml); details: ATCC 90029, 24 h
Candida albicans [4] = experiment: Potentiation of amphotericin-induced antifungal activity against Candida albicans ATCC 90029 assessed as fold reduction in amphotericin MIC at 8 ug/ml after 24 hrs by broth microdilution method relative to amphotericin MIC alone
Candida albicans [5] = experiment: Potentiation of amphotericin-induced antifungal activity against Candida albicans ATCC 90029 assessed as amphotericin MIC at 8 ug/ml after 24 hrs by broth microdilution method (reference value: 0.5 ug/ml); details: ATCC 90029, 24 h
Candida albicans [6] = experiment: Potentiation of amphotericin-induced antifungal activity against Candida albicans ATCC 90029 assessed as amphotericin MIC at 32 ug/ml after 24 hrs by broth microdilution method (reference value: 0.5 ug/ml); details: ATCC 90029, 24 h
Candida albicans [7] = experiment: Potentiation of amphotericin-induced antifungal activity against Candida albicans ATCC 90029 assessed as fold reduction in amphotericin MIC at 2 ug/ml after 24 hrs by broth microdilution method relative to amphotericin MIC alone
Candida albicans [8] = experiment: Potentiation of amphotericin-induced antifungal activity against Candida albicans ATCC 90029 assessed as amphotericin MIC at 2 ug/ml after 24 hrs by broth microdilution method (reference value: 0.5 ug/ml); details: ATCC 90029, 24 h
Candida albicans [9] = experiment: Potentiation of amphotericin-induced antifungal activity against Candida albicans ATCC 90029 assessed as fold reduction in amphotericin MIC at 4 ug/ml after 24 hrs by broth microdilution method relative to amphotericin MIC alone
Candida albicans [10] = experiment: Potentiation of amphotericin-induced antifungal activity against Candida albicans ATCC 90029 assessed as amphotericin MIC at 4 ug/ml after 24 hrs by broth microdilution method (reference value: 0.5 ug/ml); details: ATCC 90029, 24 h

Row | Structure (SMILES) | Ratio (Candida albicans [1]) | Ratio (Candida albicans [2]) | MIC (Candida albicans [3]) | Ratio (Candida albicans [4]) | MIC (Candida albicans [5]) | MIC (Candida albicans [6]) | Ratio (Candida albicans [7]) | MIC (Candida albicans [8]) | Ratio (Candida albicans [9]) | MIC (Candida albicans [10])
1 | CN[C@@H](Cc1ccc(OC(C)(C)C)cc1)C(=O)Nc1ccccc1C(=O)N[C@@H](C)C(=O)N[C@H](C(=O)O)C(C)C (H-[NMeY](tBu)[2Abz]AV-OH) | 8 | 16 | 0.063 µg/mL | 4 | 0.13 µg/mL | 0.031 µg/mL |  |  |  | 
2 | CC(C)[C@H](N)C(=O)N(C)[C@@H](Cc1ccc(OC(C)(C)C)cc1)C(=O)Nc1ccccc1C(=O)N[C@@H](C)C(=O)O (H-V[NMeY](tBu)[2Abz]A-OH) | 4 | 8 | 0.13 µg/mL | 2 | 0.25 µg/mL | 0.063 µg/mL |  |  |  | 
3 | CC(C)[C@H](NC(=O)[C@H](C)NC(=O)c1ccccc1N)C(=O)N(C)[C@@H](Cc1ccc(OC(C)(C)C)cc1)C(=O)O (H-[2Abz]AV[NMeY](tBu)-OH) | 4 | 4 | 0.13 µg/mL | 2 | 0.25 µg/mL | 0.13 µg/mL |  |  |  | 
4 | C[C@H](NC(=O)c1ccccc1N)C(=O)O |  | 4 |  |  |  | 0.13 µg/mL |  |  |  | 
5 | CC(C)[C@@H]1NC(=O)[C@H](C)NC(=O)c2ccccc2NC(=O)[C@H](Cc2ccc(OC(C)(C)C)cc2)N(C)C1=O (cyclo([2Abz]AV[NMeY](tBu))) | 8 | 16 | 0.063 µg/mL | 4 | 0.13 µg/mL | 0.031 µg/mL |  |  |  | 
6 | CC(C)[C@H](NC(=O)[C@H](C)N)C(=O)N(C)[C@@H](Cc1ccc(OC(C)(C)C)cc1)C(=O)Nc1ccccc1C(=O)O (H-AV[NMeY](tBu)[2Abz]-OH) | 16 | 16 | 0.031 µg/mL |  | 0.031 µg/mL | 0.031 µg/mL | 2 | 0.25 µg/mL | 4 | 0.13 µg/mL
